Experimental data reported in US20260198493A1, “HYDRAZIDE COMPOUND AND AGRICULTURAL/HORTICULTURAL FUNGICIDE” (Nippon Soda Co., Ltd., priority 2022, published 2026).

Columns and labels:
[1] = tested on: Botrytis cinerea; assay type: cell-based; settings: 120 h, 25 ppm by volume, Vogel medium, 20° C., five days, dark, read-out: growth inhibition ratio
[2] = tested on: Colletotrichum acutatum; experiment: Fungicidal effect test against fungi causing apple anthracnose; settings: 96 h, read-out: growth inhibition ratio
[3] = tested on: Glomerella cingulata; experiment: Fungicidal effect test against fungi causing grape ripe rot disease; settings: Colletotrichum gloeosporioides, 72 h, read-out: growth inhibition ratio
[4] = tested on: Botrytis cinerea; experiment: Control test of cucumber gray mold (sprayed young cucumber seedlings); assay type: in vivo; settings: 96 h, four days after inoculation; for pest or weed control at 25 ppm: 25 ppm by mass spray; for pest or weed control at 125 ppm: 125 ppm by mass spray
Procedure: Then, the drug liquid was sprayed onto young cucumber seedlings cultivated in a nursery pot (variety “Jihai”-based, cotyledon stage), and then air-dried. […] They were left still in a moist room at 20° C. Four days after inoculation, leaves of the young cucumber seedlings were visually observed, and the control value was calculated from the lesion area ratio in accordance with the following equation. [formula]

[5] = tested on: Erysiphe graminis f.sp.tritici; experiment: Control test of wheat powdery mildew disease (sprayed young wheat seedlings); assay type: in vivo; settings: Blumeria graminis, 144 h, 125 ppm by mass spray, six days after inoculation
Source text: [formula] […] Then, the drug liquid was sprayed onto young wheat seedlings cultivated in a nursery pot (variety “Chihoku”, one-to two-leaf stage), and then air-dried. Thereafter, conidiospores of fungi causing wheat powdery mildew disease (Erysiphe graminis f.sp.tritici) were sprinkled on the young wheat seedlings to inoculate them (treated area). As a control, the conidiospores of fungi causing wheat powdery mildew disease (Erysiphe graminis f.sp.tritici) were sprinkled on young wheat seedlings unsprayed with the drug liquid (untreated area). They were left still in a greenhouse at 20° C. Six days after inoculation, leaves of young wheat seedlings were visually observed, and the lesion area ratio was determined to calculate the control value in a similar manner to the previous test.

[6] = tested on: Venturia inaequalis; experiment: Control test of apple scab disease (sprayed young apple seedlings); assay type: in vivo; settings: 125 ppm by mass spray, 12 to 14 days after inoculation
Procedure: [formula] […] Then, the drug liquid was sprayed onto young apple seedlings cultivated in a nursery pot (variety “Orin”, three-to four-leaf stage), and then air-dried. Thereafter, conidiospores of fungi causing apple scab disease (Venturia inaequalis) were inoculated thereon (treated area). As a control, the conidiospores were inoculated in a similar manner to the above on young apple seedlings unsprayed with the drug liquid (untreated area). They were left still at 20° C. in a moist room with light and dark cycles repeated every 12 hours. 12 Days to 14 days after inoculation, leaves of young apple seedlings were visually observed, and the control value was calculated from the lesion area ratio in accordance with the equation used in the control test of cucumber gray mold.

COC(=O)N(Cc1ccc(OC)cc1C)NC(=O)c1ccncc1Oc1cccc(C2CC2)c1F [b-151]
≥ 75%: inhibition of growth at 25 ppm [1] | inhibition of growth at 25 ppm [2] | inhibition of growth at 25 ppm [3] | pest or weed control at 25 ppm [4] | pest or weed control at 125 ppm [4] | pest or weed control at 125 ppm [5] | pest or weed control at 125 ppm [6]

COC(=O)N(Cc1ccc(OC)cc1OC)NC(=O)c1nc(C)ncc1Oc1cccc(C2CC2)c1F [b-86]
≥ 75%: inhibition of growth at 25 ppm [1] | inhibition of growth at 25 ppm [3] | pest or weed control at 25 ppm [4] | pest or weed control at 125 ppm [4] | pest or weed control at 125 ppm [5] | pest or weed control at 125 ppm [6]

COC(=O)N(Cc1ccc(C)cc1C)NC(=O)c1cc(C)nnc1Oc1cccc(OC)c1 [b-123]
≥ 75%: inhibition of growth at 25 ppm [1] | inhibition of growth at 25 ppm [2] | inhibition of growth at 25 ppm [3] | pest or weed control at 125 ppm [5] | pest or weed control at 125 ppm [6]

COC(=O)N(Cc1ccc(C)cc1C)NC(=O)c1cc(C)nnc1Oc1cccc(OC)c1F [b-52]
≥ 75%: inhibition of growth at 25 ppm [1] | inhibition of growth at 25 ppm [2] | inhibition of growth at 25 ppm [3] | pest or weed control at 25 ppm [4] | pest or weed control at 125 ppm [4] | pest or weed control at 125 ppm [5] | pest or weed control at 125 ppm [6]

COCOc1ccc(CN(NC(=O)c2cc(C)nnc2Oc2cccc(C3CC3)c2F)C(=O)OC)c(C)c1 [b-30]
≥ 75%: inhibition of growth at 25 ppm [1] | inhibition of growth at 25 ppm [2] | inhibition of growth at 25 ppm [3] | pest or weed control at 25 ppm [4] | pest or weed control at 125 ppm [4] | pest or weed control at 125 ppm [5] | pest or weed control at 125 ppm [6]

Cc1ccc(CN(NC(=O)c2cc(C)nnc2Oc2cccc(C3CC3)c2F)C(=O)OCc2ccccc2)c(C)c1 [b-182]
≥ 75%: inhibition of growth at 25 ppm [1] | inhibition of growth at 25 ppm [2] | inhibition of growth at 25 ppm [3] | pest or weed control at 25 ppm [4] | pest or weed control at 125 ppm [4] | pest or weed control at 125 ppm [5] | pest or weed control at 125 ppm [6]

COC(=O)N(Cc1ccc(OC)cc1C)NC(=O)c1cc(C)nnc1Oc1cccc(C2CC2)c1F [b-44]
≥ 75%: inhibition of growth at 25 ppm [1] | inhibition of growth at 25 ppm [2] | inhibition of growth at 25 ppm [3] | pest or weed control at 25 ppm [4] | pest or weed control at 125 ppm [4] | pest or weed control at 125 ppm [5] | pest or weed control at 125 ppm [6]

COC(=O)N(Cc1ccc2c(c1)OCO2)NC(=O)c1cc(C)nnc1Oc1cccc(C2CC2)c1F [b-110]
≥ 75%: inhibition of growth at 25 ppm [1] | inhibition of growth at 25 ppm [2] | inhibition of growth at 25 ppm [3] | pest or weed control at 125 ppm [5] | pest or weed control at 125 ppm [6]

COC(=O)N(Cc1ccc(OC)cc1C)NC(=O)c1c(C)cnnc1Oc1cccc(C2CC2)c1F [b-192]
≥ 75%: inhibition of growth at 25 ppm [1] | inhibition of growth at 25 ppm [2] | inhibition of growth at 25 ppm [3] | pest or weed control at 25 ppm [4] | pest or weed control at 125 ppm [4] | pest or weed control at 125 ppm [5] | pest or weed control at 125 ppm [6]

CC(=S)N(Cc1ccc(C)cc1C)NC(=O)c1cc(C)nnc1Oc1cccc(C2CC2)c1F [b-66, 3-(3-Cyclopropyl-2-fluorophenoxy)-N′-(2,4-dimethylbenzyl)-N′-ethanethioyl-6-methylpyridazine-4-carbohydrazide]
≥ 75%: inhibition of growth at 25 ppm [1] | inhibition of growth at 25 ppm [2] | inhibition of growth at 25 ppm [3] | pest or weed control at 25 ppm [4] | pest or weed control at 125 ppm [4] | pest or weed control at 125 ppm [5] | pest or weed control at 125 ppm [6]

COC(=O)N(Cc1ccc(C)cc1C)NC(=O)c1cc(C)nnc1Oc1cccc(Br)c1Cl [b-68]
≥ 75%: inhibition of growth at 25 ppm [1] | inhibition of growth at 25 ppm [2] | inhibition of growth at 25 ppm [3] | pest or weed control at 125 ppm [4] | pest or weed control at 125 ppm [5] | pest or weed control at 125 ppm [6]

COC(=O)N(Cc1ccc(OC)cc1OC)NC(=O)c1cc(C)nnc1Oc1cccc(C2CC2)c1F [b-83]
≥ 75%: inhibition of growth at 25 ppm [1] | inhibition of growth at 25 ppm [2] | inhibition of growth at 25 ppm [3] | pest or weed control at 125 ppm [4] | pest or weed control at 125 ppm [5] | pest or weed control at 125 ppm [6]

COC(=O)N(Cc1ccc(C)cc1C)NC(=O)c1cc(C)nnc1Oc1cccc(I)c1 [b-114]
≥ 75%: inhibition of growth at 25 ppm [1] | inhibition of growth at 25 ppm [2] | inhibition of growth at 25 ppm [3] | pest or weed control at 125 ppm [4] | pest or weed control at 125 ppm [5] | pest or weed control at 125 ppm [6]

COC(=O)N(Cc1ccc(OC)cc1)NC(=O)c1cc(C)nnc1Oc1cccc(C2CC2)c1F [b-100]
≥ 75%: inhibition of growth at 25 ppm [1] | inhibition of growth at 25 ppm [2] | inhibition of growth at 25 ppm [3] | pest or weed control at 125 ppm [5] | pest or weed control at 125 ppm [6]

COC(=O)N(Cc1ccc(C)cc1C)NC(=O)c1ccnnc1Oc1cccc(Cl)c1F [b-190]
≥ 75%: inhibition of growth at 25 ppm [1] | inhibition of growth at 25 ppm [2] | inhibition of growth at 25 ppm [3] | pest or weed control at 25 ppm [4] | pest or weed control at 125 ppm [4] | pest or weed control at 125 ppm [5] | pest or weed control at 125 ppm [6]

COC(=O)N(Cc1ccc(C)c(C)c1)NC(=O)c1cc(C)nnc1Oc1cccc(C2CC2)c1F [b-29]
≥ 75%: inhibition of growth at 25 ppm [1] | inhibition of growth at 25 ppm [2] | inhibition of growth at 25 ppm [3] | pest or weed control at 25 ppm [4] | pest or weed control at 125 ppm [4] | pest or weed control at 125 ppm [5] | pest or weed control at 125 ppm [6]

COC(=O)N(Cc1ccc(C2CC2)cc1)NC(=O)c1cc(C)nnc1Oc1cccc(C2CC2)c1F [b-163]
≥ 75%: inhibition of growth at 25 ppm [1] | inhibition of growth at 25 ppm [2] | inhibition of growth at 25 ppm [3] | pest or weed control at 25 ppm [4] | pest or weed control at 125 ppm [4] | pest or weed control at 125 ppm [5] | pest or weed control at 125 ppm [6]

COC(=O)N(Cc1ccc(OC)cc1OC)NC(=O)c1cc(C)ncc1Oc1cccc(C2CC2)c1F [b-85]
≥ 75%: inhibition of growth at 25 ppm [1] | inhibition of growth at 25 ppm [3] | pest or weed control at 25 ppm [4] | pest or weed control at 125 ppm [4] | pest or weed control at 125 ppm [5] | pest or weed control at 125 ppm [6]

COC(=O)N(Cc1ccc(C)cc1C)NC(=O)c1cc(C)nnc1Oc1cccc(F)c1Cl [b-180]
≥ 75%: inhibition of growth at 25 ppm [1] | pest or weed control at 125 ppm [5] | pest or weed control at 125 ppm [6]

COC(=O)N(Cc1ccccc1)NC(=O)c1cc(C)nnc1Oc1cccc(C2CC2)c1F [b-102]
≥ 75%: inhibition of growth at 25 ppm [1] | inhibition of growth at 25 ppm [2] | inhibition of growth at 25 ppm [3] | pest or weed control at 125 ppm [5] | pest or weed control at 125 ppm [6]

COC(=O)N(Cc1ccc(OC)cc1C)NC(=O)c1cc(C)ncc1Oc1cccc(C2CC2)c1F [b-104]
≥ 75%: inhibition of growth at 25 ppm [1] | inhibition of growth at 25 ppm [2] | pest or weed control at 25 ppm [4] | pest or weed control at 125 ppm [4] | pest or weed control at 125 ppm [5] | pest or weed control at 125 ppm [6]
